Converted amounts (≈) assume the structure as drawn.
Tests used:
[1] = test system: mouse ear edema induced by PMA (phorbol myristate acetate); experiment: Acute contact dermatitis: TPA-induced auricular edema; assay type: in vivo, CD1 mice; conditions: 500 μg/ear topical in TPDS, 30 min before TPA 0.01%, sacrifice 6 h later
Experimental: Groups of 5-6 CD1 mice (18-24 g) were used. • Administration of the Compounds All the macrolide derivatives were dissolved in Trans-phase Delivery System (TPDS), a vehicle containing benzyl alcohol 10%, acetone 40% and isopropanol 50%. 15 microliters of the compounds (500 μg), dissolved in TPDS, were applied topically to the internal surface of one ear; 30 minutes later, 12 microliters of a solution of tetradecanoyl phorbol acetate (TPA) at a concentration of 0.01% dissolved in acetone, were applied to the same area. Six hours later, the animals were sacrificed by inhalation of CO2. • Evaluation of the Results Two methods were used for assessing the auricular edema: • a) Weighing a defined portion of auricular pinna. • b) Measurement of auricular thickness using precision spring calipers. The degree of edema was calculated by subtracting the weight or the thickness of the untreated ear from that of the treated contralateral ear. To determine the degree of remission of the edema, the difference (weight or thickness) of the groups treated with TPA+macrolides relative to those treated with just TPA was compared. The activity of the macrolides was measured using the modified method of Zunic et al. (1998): MDL (Lysyl) GDP, a non-toxil muramyl dipeptide derivative inhibits cytokine production by activated macrophages and protects mice from phorbol ester- and oxazolone-induced inflammation (J. Invest. Dermatol., 111 (1), 77-82). The data relating to erythromycin and azithromycin refer to treatment in a single dose at 500 μg/ear.

[2] = test system: Staphylococcus aureus ATCC 6538; experiment: Antibiotic activity at 128 μg/ml; assay type: cell-based
Experimental: (§1) The MIC values were determined in liquid culture medium by the technique described in the “Manual of Clinical Microbiology, 7th edition (1999), American Society for Microbiology”.

[3] = test system: Streptococcus pyogenes ATCC 19615; experiment: Antibiotic activity at 128 μg/ml; assay type: cell-based
Experimental: as §1

[4] = test system: accumulation of neutrophils in the rat lung induced by LPS; experiment: LPS-induced pulmonary inflammation in the rat; assay type: in vivo; conditions: oral single dose 100, 40 and 10 μmol/kg one hour before LPS 0.4 mg/kg endotracheally; 20 h; erythromycin: single oral dose 130 μmol/kg
Experimental: The rats were given a single dose of 0.4 mg/kg of LPS (E. coli, serotype 026:6) endotracheally, by the trans-oral route. Tracheal instillation was carried out under halothane anesthesia and 20 hours after the endotracheal administration of LPS/saline solution the animals were sacrificed by urethane overdose. • Washing
The lungs were washed with four aliquots each of 5 ml of saline solution with heparin 10 IU/ml. The cellular suspension was concentrated by low-speed centrifugation and the cellular pellet was suspended. • Cell Count and Differentiation
The total cell count was obtained using a hemocytometer.
The differential count was obtained from cytospin preparations stained with May-Grunwald-Giemsa (Tamaoki J., Tagaya E., Yamawaki I., Sakai N., Nagai A., Konno K., 1995. Effect of erythromycin on endotoxin-induced microvascular leakage in the rat trachea and lungs. Am. J. Respir. Crit. Care Med., 151, 1582-8). The rats received the test compounds orally at a dose of 100, 40 and 10 μmol/kg as a single dose administered orally one hour before exposure to LPS.
The ED/50 value is the dose that caused 50% reduction in the neutrophil count in the bronchial wash fluid.
The result for erythromycin relates to oral treatment in a single dose with 130 μmol/kg.

[5] = test system: Enterococcus faecalis ATCC 29212; experiment: Antibiotic activity, MIC in liquid culture medium; assay type: cell-based; conditions: ATCC29212, lowest concentration that completely inhibits visible growth, read-out: Enter. faec. ATCC 29212 MIC
Experimental: as §1

[6] = test system: Staphylococcus aureus ATCC 29213; experiment: Antibiotic activity, MIC in liquid culture medium; assay type: cell-based; conditions: ATCC29213, lowest concentration that completely inhibits visible growth, read-out: Sta. aureus ATCC 29213 MIC
Experimental: as §1

[7] = test system: Streptococcus pneumoniae ATCC 49619; experiment: Antibiotic activity, MIC in liquid culture medium; assay type: cell-based; conditions: ATCC49619, lowest concentration that completely inhibits visible growth, read-out: Str. pneum. ATTC 49619 MIC
Experimental: as §1

[8] = method a: weighing a defined portion of auricular pinna

Row | Compound | inhibition in vivo at 500 µg/ear [1, 8] [%] | MIC [5] [µg/mL] | also measured
1 | CC[C@H]1OC(=O)[C@H](C)[C@@H](O[C@H]2C[C@@](C)(OC)[C@@H](O)[C@H](C)O2)[C@H](C)[C@@H](O[C@@H]2O[C@H](C)C[C@H](N(C)C)[C@H]2O)[C@](C)(O)C[C@@H](C)CN(C)[C@H](C)[C@@H](O)[C@]1(C)O [Azithromycin, reference compound] | 40 | – | –
2 | CC[C@H]1OC(=O)[C@H](C)[C@@H](O)[C@H](C)[C@@H](O[C@@H]2O[C@H](C)C[C@H]([N+](C)(C)[O-])[C@H]2O)C(C)(O)C[C@@H](C)CN(C)[C@H](C)[C@@H](O)[C@]1(C)O (stereo partly drawn) [Compound 1] | 56.7 | > 128 | Sta. aureus ATCC 6538 128 (μg/ml) [2]: not active; Str. pyogen. ATTC 19615 128 (μg/ml) [3]: not active; ED/50 (dose that caused 50% reduction in the neutrophil count in the bronchial wash fluid) [4]: 10 µmol/kg
3 | CC[C@H]1OC(=O)[C@H](C)[C@@H](O)[C@H](C)[C@@H](O[C@@H]2O[C@H](C)C[C@H]([N+](C)(C)[O-])[C@H]2O)C(C)(O)C[C@@H](C)C[N+](C)([O-])[C@H](C)[C@@H](O)[C@]1(C)O (stereo partly drawn) [Compound 2] | 25.3 | – | –
4 | CC[C@H]1OC(=O)[C@H](C)[C@@H](O)[C@H](C)[C@@H](O[C@@H]2O[C@H](C)C=C[C@H]2O)C(C)(O)C[C@@H](C)CN(C)[C@H](C)[C@@H](O)[C@]1(C)O (stereo partly drawn) [Compound 3] | 34.4 | – | –
5 | CC[C@H]1OC(=O)[C@H](C)[C@@H](O)[C@H](C)[C@@H](O[C@@H]2O[C@H](C)CC[C@H]2O)C(C)(O)C[C@@H](C)CN(C)[C@H](C)[C@@H](O)[C@]1(C)O (stereo partly drawn) [Compound 4] | 16.5 | – | –
6 | CC[C@H]1OC(=O)[C@H](C)[C@@H](O)[C@H](C)[C@@H](O[C@@H]2O[C@H](C)C[C@H](N(C)C(C)=O)[C@H]2O)C(C)(O)C[C@@H](C)CN(C)[C@H](C)[C@@H](O)[C@]1(C)O (stereo partly drawn) [Compound 5] | 40.5 | – | –
7 | CC[C@H]1OC(=O)[C@H](C)[C@@H](O)[C@H](C)[C@@H](O[C@@H]2O[C@H](C)C[C@H](N(C)C)[C@H]2O)C(C)(O)C[C@H](C)CN(CCCNCc2nccs2)[C@H](C)[C@@H](O)[C@]1(C)O (stereo partly drawn) [Compound 6] | – | 64 (≈ 87.6 µM) | MIC [6]: 64 µg/mL (≈ 87.6 µM); MIC [7]: 8 µg/mL (≈ 10.9 µM)
8 | CC[C@H]1OC(=O)[C@H](C)[C@@H](O)[C@H](C)[C@@H](O[C@@H]2O[C@H](C)C[C@H](N(C)C)[C@H]2O)C(C)(O)C[C@@H](C)CN(CCCNCc2c[nH]cn2)[C@H](C)[C@@H](O)[C@]1(C)O (stereo partly drawn) [Compound 8] | 29.7 | – | –
9 | CC[C@H]1OC(=O)[C@H](C)[C@@H](O)[C@H](C)[C@@H](O[C@@H]2O[C@H](C)C[C@H](N(C)C)[C@H]2O)C(C)(O)C[C@@H](C)CN(CCCNCCCCCCNCc2ccccc2)[C@H](C)[C@@H](O)[C@]1(C)O (stereo partly drawn) [Compound 12] | – | > 128 | inhibition in vivo at 500 µg/ear ([1]; method b: auricular thickness using precision spring calipers): 39.5%; MIC [6]: > 128 µg/mL; MIC [7]: 64 µg/mL (≈ 77.7 µM)
10 | CC[C@H]1OC(=O)[C@H](C)[C@@H](O)[C@H](C)[C@@H](O[C@@H]2O[C@H](C)CC[C@H]2O)C(C)(O)C[C@@H](C)CN(CCCNCCNCc2nccs2)[C@H](C)[C@@H](O)[C@]1(C)O (stereo partly drawn) [Compound 13] | 44.7 | – | –
11 | CC[C@H]1OC(=O)[C@H](C)[C@@H](O[C@H]2C[C@@](C)(OC)[C@@H](O)[C@H](C)O2)[C@H](C)[C@@H](O[C@@H]2O[C@H](C)C[C@H](N(C)C)[C@H]2O)[C@](C)(O)C[C@@H](C)C(=O)[C@H](C)[C@@H](O)[C@]1(C)O [Erythromycin, erythromycin, reference compound] | 42 | 1 (≈ 1.36 µM) | ED/50 (dose that caused 50% reduction in the neutrophil count in the bronchial wash fluid) [4]: not active; MIC [6]: 0.25 µg/mL (≈ 0.341 µM); MIC [7]: 0.12 µg/mL (≈ 0.164 µM)

From patent publication US7419961B2, “9a-azalides with anti-inflammatory activity” (Zambon S.p.A., priority 2002, dated 2008)
